{"source": "patent US9695155B2", "about": "“Herbicidal substituted pyrimidinyloxy benzene compounds” (E. I. DU PONT DE NEMOURS AND COMPANY, priority 2013, dated 2017)", "key": {"pigweed": {"tested_on": "pigweed", "assay": "Test C postemergence", "type": "in vivo, Amaranthus retroflexus", "conditions": "for Plant response rating, Pigweed: Postemergence, scale 0 to 100 (0 no effect, 100 complete control)", "how_it_was_run": "(§1)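 Greenhouse herbicide screen. Pre: seeded loam/sand, sprayed at planting. Post: 1–4 leaf plants (2–18 cm) in peat-based mix. Formulation: solvent mixture + surfactant, non-phytotoxic. Readout: visual % control vs untreated, 13–15 d; dash = not tested.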"}, "wheat, winter": {"tested_on": "wheat, winter", "assay": "Test C postemergence", "type": "in vivo, Triticum aestivum", "conditions": "for Plant response rating, Wheat: Postemergence, scale 0 to 100 (0 no effect, 100 complete control)", "how_it_was_run": "as §1"}, "waterhemp": {"tested_on": "waterhemp", "assay": "Test C postemergence", "type": "in vivo, Amaranthus rudis", "conditions": "for Plant response rating, Waterhemp: Postemergence, scale 0 to 100 (0 no effect, 100 complete control)", "how_it_was_run": "as §1"}, "galium": {"tested_on": "galium", "assay": "Test C postemergence", "type": "in vivo, Galium aparine", "conditions": "for Plant response rating, Galium: Postemergence", "how_it_was_run": "as §1"}, "velvetleaf [1]": {"tested_on": "velvetleaf", "assay": "Test A preemergence", "type": "in vivo, Abutilon theophrasti", "conditions": "125 g ai/ha, 0 to 100 scale where 0 is no effect and 100 is complete control", "how_it_was_run": "(§2)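 Greenhouse pot test, loam/sand soil. Formulation: non-phytotoxic solvent mix plus surfactant. Pre: directed spray onto soil after sowing. Post: plants at 1–2 leaf, 2–10 cm. Rated visually vs untreated controls at ~10 d, 0 (no effect) to 100 (complete control).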"}, "blackgrass": {"tested_on": "blackgrass", "assay": "Test C postemergence", "type": "in vivo, Alopecurus myosuroides", "conditions": "for Plant response rating, Blackgrass: Postemergence", "how_it_was_run": "as §1"}, "morningglory [2]": {"tested_on": "morningglory", "assay": "Test A postemergence", "type": "in vivo, Ipomoea spp.", "conditions": "0 to 100 scale where 0 is no effect and 100 is complete control", "how_it_was_run": "as §2"}, "velvetleaf [3]": {"tested_on": "velvetleaf", "assay": "Test A postemergence", "type": "in vivo, Abutilon theophrasti", "conditions": "0 to 100 scale where 0 is no effect and 100 is complete control", "how_it_was_run": "as §2"}, "wheat": {"tested_on": "wheat", "assay": "Test A preemergence", "type": "in vivo, Triticum aestivum", "conditions": "125 g ai/ha, 0 to 100 scale where 0 is no effect and 100 is complete control", "how_it_was_run": "as §2"}, "corn": {"tested_on": "corn", "assay": "Test A postemergence", "type": "in vivo, Zea mays", "conditions": "0 to 100 scale where 0 is no effect and 100 is complete control", "how_it_was_run": "as §2"}, "velvetleaf [4]": {"tested_on": "velvetleaf", "assay": "Test C postemergence", "type": "in vivo, Abutilon theophrasti", "conditions": "for Plant response rating, Velvetleaf: Postemergence, scale 0 to 100 (0 no effect, 100 complete control)", "how_it_was_run": "as §1"}, "oilseed rape": {"tested_on": "oilseed rape", "assay": "Test C postemergence", "type": "in vivo, Brassica napus", "conditions": "for Plant response rating, Oilseed Rape: Postemergence, scale 0 to 100 (0 no effect, 100 complete control)", "how_it_was_run": "as §1"}, "soybean": {"tested_on": "soybean", "assay": "Test C postemergence", "type": "in vivo, Glycine max", "conditions": "for Plant response rating, Soybean: Postemergence, scale 0 to 100 (0 no effect, 100 complete control)", "how_it_was_run": "as §1"}, "kochia": {"tested_on": "kochia", "assay": "Test C postemergence", "type": "in vivo, Kochia scoparia", "conditions": "for Plant response rating, Kochia: Postemergence", "how_it_was_run": "as §1"}, "ragweed": {"tested_on": "ragweed", "assay": "Test C postemergence", "type": "in vivo, Ambrosia elatior", "conditions": "for Plant response rating, Ragweed: Postemergence, scale 0 to 100 (0 no effect, 100 complete control)", "how_it_was_run": "as §1"}, "morningglory [5]": {"tested_on": "morningglory", "assay": "Test A preemergence", "type": "in vivo, Ipomoea spp.", "how_it_was_run": "as §2"}, "johnsongrass": {"tested_on": "johnsongrass", "assay": "Test C postemergence", "type": "in vivo, Sorghum halepense", "conditions": "for Plant response rating, Johnsongrass: Postemergence", "how_it_was_run": "as §1"}, "giant foxtail": {"tested_on": "giant foxtail", "assay": "Test A preemergence", "type": "in vivo, Setaria faberii", "how_it_was_run": "as §2"}, "[6]": {"conditions": "16 g ai/ha, postemergence, visual rating, scale 0 to 100 (0 no effect, 100 complete control), 13 to 15 days"}, "[7]": {"conditions": "31 g ai/ha, scale 0 to 100 (0 no effect, 100 complete control), 13 to 15 days"}, "[8]": {"conditions": "62 g ai/ha, scale 0 to 100 (0 no effect, 100 complete control)"}, "[9]": {"conditions": "125 g ai/ha, 0 to 100 scale where 0 is no effect and 100 is complete control"}, "[10]": {"conditions": "500 g ai/ha, 0 to 100 scale, 0 no effect, 100 complete control, approx. 10 days"}}, "data": [{"smiles": "Fc1cnc(Oc2cccc(C(F)F)c2-n2cc(Cl)cn2)nc1", "note": "[Compound 94]", "values": [{"measurement": "Plant response rating (0 to 100), Pigweed", "setting": "pigweed; 125 g ai/ha, postemergence", "result": 85}, {"measurement": "Plant response rating, Pigweed", "setting": "pigweed; 31 g ai/ha, 13 to 15 days", "result": 80}, {"measurement": "Plant response rating, Pigweed", "setting": "pigweed; 62 g ai/ha", "result": 80}, {"measurement": "Plant response rating (0 to 100), Wheat", "setting": "wheat, winter; 125 g ai/ha, postemergence", "result": 0}, {"measurement": "Plant response rating, Wheat", "setting": "wheat, winter; 31 g ai/ha, 13 to 15 days", "result": 0}, {"measurement": "Plant response rating, Wheat", "setting": "wheat, winter; 62 g ai/ha", "result": 0}, {"measurement": "Plant response rating (0 to 100), Waterhemp", "setting": "waterhemp; 125 g ai/ha, postemergence", "result": 70}, {"measurement": "Plant response rating, Waterhemp", "setting": "waterhemp; 31 g ai/ha, 13 to 15 days", "result": 80}, {"measurement": "Plant response rating, Waterhemp", "setting": "waterhemp; 62 g ai/ha", "result": 75}, {"measurement": "Galium plant response rating", "setting": "galium; [6]", "result": 45}, {"measurement": "Plant response rating (0 to 100), Galium", "setting": "galium; 125 g ai/ha, postemergence", "result": 80}, {"measurement": "Plant response rating, Galium", "setting": "galium; [7]", "result": 70}, {"measurement": "Plant response rating, Galium", "setting": "galium; [8]", "result": 80}, {"measurement": "Plant response rating, Velvetleaf", "setting": "velvetleaf [1]", "result": 90}, {"measurement": "Blackgrass plant response rating", "setting": "blackgrass; [6]", "result": 0}, {"measurement": "Plant response rating (0 to 100), Blackgrass", "setting": "blackgrass; 125 g ai/ha, postemergence", "result": 5}, {"measurement": "Plant response rating, Blackgrass", "setting": "blackgrass; [7]", "result": 5}, {"measurement": "Plant response rating, Blackgrass", "setting": "blackgrass; [8]", "result": 5}, {"measurement": "Plant response rating, Morningglory", "setting": "morningglory [2]; 125 g ai/ha", "result": 80}, {"measurement": "Plant response rating, Morningglory", "setting": "morningglory [2]; 500 g ai/ha", "result": 100}, {"measurement": "Plant response rating, Velvetleaf", "setting": "velvetleaf [3]; 125 g ai/ha", "result": 90}, {"measurement": "Plant response rating, Velvetleaf", "setting": "velvetleaf [3]; 500 g ai/ha", "result": 100}, {"measurement": "Plant response rating, Wheat", "setting": "wheat", "result": 0}, {"measurement": "Plant response rating, Corn", "setting": "corn; 125 g ai/ha", "result": 30}, {"measurement": "Plant response rating, Corn", "setting": "corn; 500 g ai/ha", "result": 50}, {"measurement": "Plant response rating (0 to 100), Velvetleaf", "setting": "velvetleaf [4]; 125 g ai/ha, postemergence", "result": 40}, {"measurement": "Plant response rating, Velvetleaf", "setting": "velvetleaf [4]; 31 g ai/ha, 13 to 15 days", "result": 20}, {"measurement": "Plant response rating, Velvetleaf", "setting": "velvetleaf [4]; 62 g ai/ha", "result": 65}, {"measurement": "Plant response rating (0 to 100), Oilseed Rape", "setting": "oilseed rape; 125 g ai/ha, postemergence", "result": 80}, {"measurement": "Plant response rating, Oilseed Rape", "setting": "oilseed rape; 31 g ai/ha, 13 to 15 days", "result": 50}, {"measurement": "Plant response rating, Oilseed Rape", "setting": "oilseed rape; 62 g ai/ha", "result": 50}, {"measurement": "Plant response rating (0 to 100), Soybean", "setting": "soybean; 125 g ai/ha, postemergence", "result": 80}, {"measurement": "Plant response rating, Soybean", "setting": "soybean; 31 g ai/ha, 13 to 15 days", "result": 45}, {"measurement": "Plant response rating, Soybean", "setting": "soybean; 62 g ai/ha", "result": 85}, {"measurement": "Kochia plant response rating", "setting": "kochia; [6]", "result": 30}, {"measurement": "Plant response rating (0 to 100), Kochia", "setting": "kochia; 125 g ai/ha, postemergence", "result": 90}, {"measurement": "Plant response rating, Kochia", "setting": "kochia; [7]", "result": 80}, {"measurement": "Plant response rating, Kochia", "setting": "kochia; [8]", "result": 90}, {"measurement": "Plant response rating (0 to 100), Ragweed", "setting": "ragweed; 125 g ai/ha, postemergence", "result": 45}, {"measurement": "Plant response rating, Ragweed", "setting": "ragweed; 31 g ai/ha, 13 to 15 days", "result": 15}, {"measurement": "Plant response rating, Ragweed", "setting": "ragweed; 62 g ai/ha", "result": 55}, {"measurement": "Plant response rating, Morningglory", "setting": "morningglory [5]; [9]", "result": 40}, {"measurement": "Morningglory plant response rating", "setting": "morningglory [5]; [10]", "result": 90}, {"measurement": "Johnsongrass plant response rating", "setting": "johnsongrass; [6]", "result": 5}, {"measurement": "Plant response rating (0 to 100), Johnsongrass", "setting": "johnsongrass; 125 g ai/ha, postemergence", "result": 5}, {"measurement": "Plant response rating, Johnsongrass", "setting": "johnsongrass; [7]", "result": 5}, {"measurement": "Plant response rating, Johnsongrass", "setting": "johnsongrass; [8]", "result": 5}, {"measurement": "Plant response rating, Foxtail, Giant", "setting": "giant foxtail; [9]", "result": 100}, {"measurement": "Foxtail, Giant plant response rating", "setting": "giant foxtail; [10]", "result": 100}]}]}
